Test results: the supplement of paper PMC10307832

Experiments:
Experiment in all cases: relative viability (nuclei count vs DMSO), 5 days (fraction); higher = more cells survive
VX-702 + Decitabine = compound: NC(=O)c1ccc(N(C(N)=O)c2c(F)cccc2F)nc1-c1ccc(F)cc1F [VX-702] + Nc1ncn([C@H]2C[C@H](O)[C@@H](CO)O2)c(=O)n1 [Decitabine] (partner 2 µM)
Method in brief: (§1)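 Relative viability is defined as nuclei in treated wells over nuclei in vehicle wells. Duplicate plates were run and medians reported. Lung cancer cell lines in 1536-well plates were dosed by pin tool one day after seeding, with one drug or with a fixed anchor-drug dose plus five library-drug doses (not always all listed) in √10 steps, and nuclei were counted after 5 days.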

VX-702 + Trametinib = compound: NC(=O)c1ccc(N(C(N)=O)c2c(F)cccc2F)nc1-c1ccc(F)cc1F [VX-702] + CC(=O)Nc1cccc(-n2c(=O)n(C3CC3)c(=O)c3c(Nc4ccc(I)cc4F)n(C)c(=O)c(C)c32)c1 [Trametinib] (partner 0.02 µM)
Method in brief: as §1

VX-702 + Linsitinib = compound: NC(=O)c1ccc(N(C(N)=O)c2c(F)cccc2F)nc1-c1ccc(F)cc1F [VX-702] + C[C@]1(O)C[C@@H](c2nc(-c3ccc4ccc(-c5ccccc5)nc4c3)c3c(N)nccn32)C1 [Linsitinib] (partner 1 µM)
Method in brief: as §1

Dabrafenib + Luminespib = compound: CC(C)(C)c1nc(-c2cccc(NS(=O)(=O)c3c(F)cccc3F)c2F)c(-c2ccnc(N)n2)s1 [Dabrafenib] + CCNC(=O)c1noc(-c2cc(C(C)C)c(O)cc2O)c1-c1ccc(CN2CCOCC2)cc1 [Luminespib] (partner 0.01 µM)
Method in brief: as §1

Cell Line: PC-14
- relative viability (VX-702 + Decitabine; first compound 0.02 µM): 0.199
- relative viability (VX-702 + Decitabine; first compound 0.2 µM): 0.261
- relative viability (VX-702 + Decitabine; first compound 0.6325 µM): 0.221
- relative viability (VX-702 + Decitabine; first compound 2 µM): 0.218
- relative viability (VX-702 + Trametinib; first compound 0.02 µM): 0.781
- relative viability (VX-702 + Trametinib; first compound 0.2 µM): 0.693
- relative viability (VX-702 + Trametinib; first compound 0.6325 µM): 0.825
- relative viability (VX-702 + Trametinib; first compound 2 µM): 0.925
- relative viability (VX-702 + Linsitinib; first compound 0.02 µM): 0.965
- relative viability (VX-702 + Linsitinib; first compound 0.2 µM): 0.943
- relative viability (VX-702 + Linsitinib; first compound 0.6325 µM): 1.04
- relative viability (VX-702 + Linsitinib; first compound 2 µM): 1.04
- relative viability (Dabrafenib + Luminespib; first compound 0.009487 µM): 0.272
- relative viability (Dabrafenib + Luminespib; first compound 0.03 µM): 0.158
- relative viability (Dabrafenib + Luminespib; first compound 0.09487 µM): 0.149
- relative viability (Dabrafenib + Luminespib; first compound 0.3 µM): 0.115

Cell Line: RERF-LC-KJ
- relative viability (VX-702 + Decitabine; first compound 0.02 µM): 0.762
- relative viability (VX-702 + Decitabine; first compound 0.2 µM): 0.759
- relative viability (VX-702 + Decitabine; first compound 0.6325 µM): 0.66
- relative viability (VX-702 + Decitabine; first compound 2 µM): 0.685
- relative viability (VX-702 + Trametinib; first compound 0.02 µM): 0.749
- relative viability (VX-702 + Trametinib; first compound 0.2 µM): 0.872
- relative viability (VX-702 + Trametinib; first compound 0.6325 µM): 0.86
- relative viability (VX-702 + Trametinib; first compound 2 µM): 0.919
- relative viability (VX-702 + Linsitinib; first compound 0.02 µM): 0.956
- relative viability (VX-702 + Linsitinib; first compound 0.2 µM): 0.883
- relative viability (VX-702 + Linsitinib; first compound 0.6325 µM): 0.876
- relative viability (VX-702 + Linsitinib; first compound 2 µM): 0.966
- relative viability (Dabrafenib + Luminespib; first compound 0.003 µM): 1.31
- relative viability (Dabrafenib + Luminespib; first compound 0.009487 µM): 1.3
- relative viability (Dabrafenib + Luminespib; first compound 0.03 µM): 1.26
- relative viability (Dabrafenib + Luminespib; first compound 0.09487 µM): 1.31
- relative viability (Dabrafenib + Luminespib; first compound 0.3 µM): 1.25

Cell Line: ChaGo-K-1
- relative viability (VX-702 + Decitabine; first compound 0.02 µM): 0.532
- relative viability (VX-702 + Decitabine; first compound 0.2 µM): 0.493
- relative viability (VX-702 + Decitabine; first compound 0.6325 µM): 0.516
- relative viability (VX-702 + Decitabine; first compound 2 µM): 0.525
- relative viability (VX-702 + Trametinib; first compound 0.02 µM): 0.948
- relative viability (VX-702 + Trametinib; first compound 0.2 µM): 0.903
- relative viability (VX-702 + Trametinib; first compound 0.6325 µM): 0.859
- relative viability (VX-702 + Trametinib; first compound 2 µM): 0.844
- relative viability (Dabrafenib + Luminespib; first compound 0.003 µM): 0.57
- relative viability (Dabrafenib + Luminespib; first compound 0.009487 µM): 0.647
- relative viability (Dabrafenib + Luminespib; first compound 0.03 µM): 0.517
- relative viability (Dabrafenib + Luminespib; first compound 0.09487 µM): 0.529
- relative viability (Dabrafenib + Luminespib; first compound 0.3 µM): 0.47

Cell Line: H3255
- relative viability (VX-702 + Decitabine; first compound 0.02 µM): 0.541
- relative viability (VX-702 + Decitabine; first compound 0.6325 µM): 0.671
- relative viability (VX-702 + Decitabine; first compound 2 µM): 0.625
- relative viability (VX-702 + Trametinib; first compound 0.02 µM): 0.488
- relative viability (VX-702 + Trametinib; first compound 0.6325 µM): 0.581
- relative viability (VX-702 + Trametinib; first compound 2 µM): 0.662
- relative viability (VX-702 + Linsitinib; first compound 0.02 µM): 0.941
- relative viability (VX-702 + Linsitinib; first compound 0.2 µM): 0.856
- relative viability (VX-702 + Linsitinib; first compound 0.6325 µM): 0.866
- relative viability (VX-702 + Linsitinib; first compound 2 µM): 0.929
- relative viability (Dabrafenib + Luminespib; first compound 0.003 µM): 0.699
- relative viability (Dabrafenib + Luminespib; first compound 0.009487 µM): 0.961
- relative viability (Dabrafenib + Luminespib; first compound 0.03 µM): 0.908
- relative viability (Dabrafenib + Luminespib; first compound 0.09487 µM): 0.96
- relative viability (Dabrafenib + Luminespib; first compound 0.3 µM): 0.871

Cell Line: NCI-H1299
- relative viability (VX-702 + Linsitinib; first compound 0.02 µM): 1.17
- relative viability (VX-702 + Linsitinib; first compound 0.2 µM): 0.999
- relative viability (VX-702 + Linsitinib; first compound 0.6325 µM): 1.06
- relative viability (VX-702 + Linsitinib; first compound 2 µM): 1.09

Cell Line: NCI-H1563
- relative viability (VX-702 + Linsitinib; first compound 0.02 µM): 1.23
- relative viability (VX-702 + Linsitinib; first compound 0.2 µM): 1.15
- relative viability (VX-702 + Linsitinib; first compound 0.6325 µM): 1.18
- relative viability (VX-702 + Linsitinib; first compound 2 µM): 1.14
- relative viability (Dabrafenib + Luminespib; first compound 0.003 µM): 0.48
- relative viability (Dabrafenib + Luminespib; first compound 0.009487 µM): 0.491
- relative viability (Dabrafenib + Luminespib; first compound 0.03 µM): 0.508
- relative viability (Dabrafenib + Luminespib; first compound 0.09487 µM): 0.515
- relative viability (Dabrafenib + Luminespib; first compound 0.3 µM): 0.574

Cell Line: SK-MES-1
- relative viability (VX-702 + Decitabine; first compound 0.02 µM): 0.387
- relative viability (VX-702 + Decitabine; first compound 0.2 µM): 0.388
- relative viability (VX-702 + Decitabine; first compound 0.6325 µM): 0.308
- relative viability (VX-702 + Decitabine; first compound 2 µM): 0.297
- relative viability (VX-702 + Trametinib; first compound 0.02 µM): 0.546
- relative viability (VX-702 + Trametinib; first compound 0.2 µM): 0.52
- relative viability (VX-702 + Trametinib; first compound 0.6325 µM): 0.481
- relative viability (VX-702 + Trametinib; first compound 2 µM): 0.523
- relative viability (VX-702 + Linsitinib; first compound 0.02 µM): 1.06
- relative viability (VX-702 + Linsitinib; first compound 0.2 µM): 0.997
- relative viability (VX-702 + Linsitinib; first compound 0.6325 µM): 1.04
- relative viability (VX-702 + Linsitinib; first compound 2 µM): 1.1
- relative viability (Dabrafenib + Luminespib; first compound 0.003 µM): 0.676
- relative viability (Dabrafenib + Luminespib; first compound 0.009487 µM): 0.973
- relative viability (Dabrafenib + Luminespib; first compound 0.03 µM): 0.86
- relative viability (Dabrafenib + Luminespib; first compound 0.09487 µM): 0.8
- relative viability (Dabrafenib + Luminespib; first compound 0.3 µM): 0.688

Cell Line: NCI-H1648
- relative viability (VX-702 + Decitabine; first compound 0.02 µM): 0.443
- relative viability (VX-702 + Decitabine; first compound 0.2 µM): 0.457
- relative viability (VX-702 + Decitabine; first compound 0.6325 µM): 0.469
- relative viability (VX-702 + Decitabine; first compound 2 µM): 0.481
- relative viability (VX-702 + Trametinib; first compound 0.02 µM): 0.395
- relative viability (VX-702 + Trametinib; first compound 0.2 µM): 0.579
- relative viability (VX-702 + Trametinib; first compound 0.6325 µM): 0.593
- relative viability (VX-702 + Trametinib; first compound 2 µM): 0.435

Cell Line: NCI-H1755
- relative viability (VX-702 + Decitabine; first compound 0.02 µM): 0.699
- relative viability (VX-702 + Decitabine; first compound 0.2 µM): 0.732
- relative viability (VX-702 + Decitabine; first compound 0.6325 µM): 0.703
- relative viability (VX-702 + Decitabine; first compound 2 µM): 0.797
- relative viability (VX-702 + Trametinib; first compound 0.02 µM): 0.841
- relative viability (VX-702 + Trametinib; first compound 0.2 µM): 0.799
- relative viability (VX-702 + Trametinib; first compound 0.6325 µM): 0.838
- relative viability (VX-702 + Trametinib; first compound 2 µM): 0.869
- relative viability (VX-702 + Linsitinib; first compound 0.02 µM): 1.02
- relative viability (VX-702 + Linsitinib; first compound 0.2 µM): 0.967
- relative viability (VX-702 + Linsitinib; first compound 0.6325 µM): 1.01
- relative viability (VX-702 + Linsitinib; first compound 2 µM): 0.725
- relative viability (Dabrafenib + Luminespib; first compound 0.003 µM): 0.407
- relative viability (Dabrafenib + Luminespib; first compound 0.009487 µM): 0.542
- relative viability (Dabrafenib + Luminespib; first compound 0.03 µM): 0.434
- relative viability (Dabrafenib + Luminespib; first compound 0.09487 µM): 0.519
- relative viability (Dabrafenib + Luminespib; first compound 0.3 µM): 0.577

Cell Line: NCI-H1651
- relative viability (VX-702 + Decitabine; first compound 0.02 µM): 0.571
- relative viability (VX-702 + Decitabine; first compound 0.2 µM): 0.573
- relative viability (VX-702 + Decitabine; first compound 0.6325 µM): 0.649
- relative viability (VX-702 + Decitabine; first compound 2 µM): 0.615
- relative viability (VX-702 + Trametinib; first compound 0.02 µM): 0.747
- relative viability (VX-702 + Trametinib; first compound 0.2 µM): 0.822
- relative viability (VX-702 + Trametinib; first compound 0.6325 µM): 0.819
- relative viability (VX-702 + Trametinib; first compound 2 µM): 0.884
- relative viability (VX-702 + Linsitinib; first compound 0.02 µM): 0.876
- relative viability (VX-702 + Linsitinib; first compound 0.2 µM): 1.09
- relative viability (VX-702 + Linsitinib; first compound 0.6325 µM): 0.967
- relative viability (VX-702 + Linsitinib; first compound 2 µM): 1
- relative viability (Dabrafenib + Luminespib; first compound 0.003 µM): 0.65
- relative viability (Dabrafenib + Luminespib; first compound 0.009487 µM): 0.87
- relative viability (Dabrafenib + Luminespib; first compound 0.03 µM): 0.789
- relative viability (Dabrafenib + Luminespib; first compound 0.09487 µM): 0.831
- relative viability (Dabrafenib + Luminespib; first compound 0.3 µM): 0.608

Cell Line: NCI-H23
- relative viability (VX-702 + Decitabine; first compound 0.02 µM): 0.322
- relative viability (VX-702 + Decitabine; first compound 0.2 µM): 0.35
- relative viability (VX-702 + Decitabine; first compound 0.6325 µM): 0.321
- relative viability (VX-702 + Decitabine; first compound 2 µM): 0.317
- relative viability (VX-702 + Trametinib; first compound 0.02 µM): 0.4
- relative viability (VX-702 + Trametinib; first compound 0.2 µM): 0.411
- relative viability (VX-702 + Trametinib; first compound 0.6325 µM): 0.392
- relative viability (VX-702 + Trametinib; first compound 2 µM): 0.413
- relative viability (VX-702 + Linsitinib; first compound 0.02 µM): 0.517
- relative viability (VX-702 + Linsitinib; first compound 0.2 µM): 0.528
- relative viability (VX-702 + Linsitinib; first compound 0.6325 µM): 0.545
- relative viability (VX-702 + Linsitinib; first compound 2 µM): 0.754
- relative viability (Dabrafenib + Luminespib; first compound 0.03 µM): 0.225
- relative viability (Dabrafenib + Luminespib; first compound 0.09487 µM): 0.195
- relative viability (Dabrafenib + Luminespib; first compound 0.3 µM): 0.226

Cell Line: A549
- relative viability (VX-702 + Decitabine; first compound 0.02 µM): 0.303
- relative viability (VX-702 + Decitabine; first compound 0.2 µM): 0.249
- relative viability (VX-702 + Decitabine; first compound 0.6325 µM): 0.332
- relative viability (VX-702 + Decitabine; first compound 2 µM): 0.177
- relative viability (VX-702 + Linsitinib; first compound 0.02 µM): 0.502
- relative viability (VX-702 + Linsitinib; first compound 0.2 µM): 0.579
- relative viability (VX-702 + Linsitinib; first compound 0.6325 µM): 0.57
- relative viability (VX-702 + Linsitinib; first compound 2 µM): 0.563
